In ChEMBL document CHEMBL4257557, “Design, synthesis, and evaluation of 4,5,6,7-tetrahydrobenzo[d]thiazole-based novel dual kinase inhibitors of CK2 and GSK3β” (Medchemcomm, 2018):

Experiments:
[1] = target: T1, Glycogen synthase kinase-3 beta (Homo sapiens, UniProt P49841); test: Inhibition of recombinant full length human His-tagged GSK3beta expressed in baculovirus expression system at 11 uM using ser/thr-9 peptide as substrate measured after 1 hr by Z'-Lyte assay relative to control
Target sequence in this assay (P49841 whole entry, looked up): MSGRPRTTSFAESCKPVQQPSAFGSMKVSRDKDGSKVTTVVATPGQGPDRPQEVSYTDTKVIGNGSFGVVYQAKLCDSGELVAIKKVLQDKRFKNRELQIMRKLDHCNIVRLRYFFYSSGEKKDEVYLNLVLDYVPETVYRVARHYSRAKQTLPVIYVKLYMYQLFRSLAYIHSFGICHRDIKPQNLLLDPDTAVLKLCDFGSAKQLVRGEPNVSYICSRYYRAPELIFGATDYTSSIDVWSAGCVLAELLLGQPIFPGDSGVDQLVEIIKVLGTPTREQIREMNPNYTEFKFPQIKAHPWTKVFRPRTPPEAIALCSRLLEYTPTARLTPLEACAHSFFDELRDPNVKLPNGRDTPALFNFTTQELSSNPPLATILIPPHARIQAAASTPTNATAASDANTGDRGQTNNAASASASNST

[2] = target: T2, Casein kinase II subunit alpha (Homo sapiens, UniProt P68400); test: Inhibition of recombinant full length human His-tagged CK2alpha1 expressed in baculovirus expression system at 11 uM using ser/thr-11 peptide as substrate measured after 1 hr by Z'-Lyte assay relative to control
Target sequence in this assay (P68400 whole entry, looked up): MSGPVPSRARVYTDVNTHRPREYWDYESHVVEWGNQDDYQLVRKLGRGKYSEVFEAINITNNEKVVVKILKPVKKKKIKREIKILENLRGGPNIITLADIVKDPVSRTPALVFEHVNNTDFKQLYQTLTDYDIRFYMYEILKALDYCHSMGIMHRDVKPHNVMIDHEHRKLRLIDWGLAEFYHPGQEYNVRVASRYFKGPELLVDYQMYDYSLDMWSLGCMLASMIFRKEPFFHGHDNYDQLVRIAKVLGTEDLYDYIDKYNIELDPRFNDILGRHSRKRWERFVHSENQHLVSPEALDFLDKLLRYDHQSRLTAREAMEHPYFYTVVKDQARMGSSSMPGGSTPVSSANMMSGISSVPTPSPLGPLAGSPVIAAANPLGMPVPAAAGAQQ

[3] = target: T1, Glycogen synthase kinase-3 beta; test: Inhibition of recombinant full length human His-tagged GSK3beta expressed in baculovirus expression system using ser/thr-9 peptide as substrate measured after 1 hr by Z'-Lyte assay
Target sequence in this assay (P49841 whole entry): as the sequence (P49841 whole entry, looked up) above

[4] = target: T2, Casein kinase II subunit alpha; test: Inhibition of recombinant full length human His-tagged CK2alpha1 expressed in baculovirus expression system using ser/thr-11 peptide as substrate measured after 1 hr by Z'-Lyte assay
Target sequence in this assay (P68400 whole entry): as the sequence (P68400 whole entry, looked up) above

| SMILES | inhibition [1] [%] | inhibition [2] [%] | IC50 [3] [µM] | IC50 [4] [µM] |
| --- | --- | --- | --- | --- |
| O=C(Nc1ccc(F)cc1)Nc1nc2c(s1)CC(NC(=O)Nc1ccc(F)cc1)CC2 (stereo not drawn) | < 30 | < 30 |  |  |
| COc1ccc(NC(=O)Nc2nc3c(s2)CC(NC(=O)Nc2ccc(OC)cc2)CC3)cc1 (stereo not drawn) | < 30 | < 30 |  |  |
| CCCN(C(=O)Nc1ccc(C(=O)OCC)cc1)C1CCc2nc(NCc3ccc(C(=O)OC)cc3)sc2C1 (stereo not drawn) | < 30 | < 30 |  |  |
| CCOC(=O)c1ccc(NC(=O)Nc2nc3c(s2)CC(N2C(=O)c4ccccc4C2=O)CC3)cc1 (stereo not drawn) | < 30 | < 30 |  |  |
| O=C(Nc1cccc(C(=O)O)c1)Nc1nc2c(s1)CC(NC(=O)Nc1cccc(C(=O)O)c1)CC2 (stereo not drawn) | > 30 | > 30 | 6 | 12.4 |
| CCCN(C(=O)Nc1cccc(C(=O)OCC)c1)C1CCc2nc(NCc3ccc(C(=O)OC)cc3)sc2C1 (stereo not drawn) | > 30 | > 30 | 13.6 | 4.6 |
| CCCN(C(=O)Nc1ccccc1F)C1CCc2nc(NC(=O)Nc3ccccc3F)sc2C1 (stereo not drawn) | < 30 | < 30 |  |  |
| O=C(Nc1cccc(F)c1)Nc1nc2c(s1)CC(NC(=O)Nc1cccc(F)c1)CC2 (stereo not drawn) | < 30 | < 30 |  |  |
| CCCN(C(=O)Nc1cccc(F)c1)C1CCc2nc(NC(=O)Nc3cccc(F)c3)sc2C1 (stereo not drawn) | < 30 | < 30 |  |  |
| CCOC(=O)c1ccc(NC(=O)Nc2nc3c(s2)CC(NC(=O)Nc2ccc(C(=O)OCC)cc2)CC3)cc1 (stereo not drawn) | < 30 | < 30 |  |  |
| CCCN(C(=O)Nc1cccc(C(=O)O)c1)C1CCc2nc(NC(=O)Nc3cccc(C(=O)O)c3)sc2C1 (stereo not drawn) | > 30 | > 30 | 1.5 | 2.8 |
| CCCN(C(=O)Nc1ccccc1F)C1CCc2nc(NCc3ccc(C(=O)OC)cc3)sc2C1 (stereo not drawn) | < 30 | < 30 |  |  |
| O=C(Nc1ccc(F)cc1)Nc1nc2c(s1)CC(N1C(=O)c3ccccc3C1=O)CC2 (stereo not drawn) | < 30 | < 30 |  |  |
| CCCN(C(=O)Nc1ccc(OC)cc1)C1CCc2nc(NCc3ccc(C(=O)OC)cc3)sc2C1 (stereo not drawn) | < 30 | < 30 |  |  |
| CCCN(C(=O)Nc1cccc(C(=O)OCC)c1)C1CCc2nc(NC(=O)Nc3cccc(C(=O)OCC)c3)sc2C1 (stereo not drawn) | < 30 | < 30 |  |  |
| O=C(Nc1cccc(C(=O)O)c1)Nc1nc2c(s1)CC(N1C(=O)c3ccccc3C1=O)CC2 (stereo not drawn) | > 30 | > 30 | 0.67 | 1.9 |
| CCCN(C(=O)Nc1ccc(F)cc1)C1CCc2nc(NC(=O)Nc3ccc(F)cc3)sc2C1 (stereo not drawn) | < 30 | < 30 |  |  |
| O=C(Nc1nc2c(s1)CC(N1C(=O)c3ccccc3C1=O)CC2)Nc1ccccc1F (stereo not drawn) | < 30 | < 30 |  |  |

| SMILES | inhibition [1] [%] | inhibition [2] [%] | IC50 [3] [µM] | IC50 [4] [µM] |
| --- | --- | --- | --- | --- |
| CCCN(C(=O)Nc1ccccc1F)C1CCc2nc(NCc3ccc(C(=O)O)cc3)sc2C1 (stereo not drawn) | < 30 | < 30 |  |  |
| CCOC(=O)c1cccc(NC(=O)Nc2nc3c(s2)CC(N2C(=O)c4ccccc4C2=O)CC3)c1 (stereo not drawn) | > 30 | > 30 | 5.3 | 7.9 |
| CCCN(C(=O)Nc1cccc(F)c1)C1CCc2nc(NCc3ccc(C(=O)O)cc3)sc2C1 (stereo not drawn) | < 30 | < 30 |  |  |
| CCOC(=O)c1cccc(NC(=O)Nc2nc3c(s2)CC(NC(=O)Nc2cccc(C(=O)OCC)c2)CC3)c1 (stereo not drawn) | > 30 | > 30 | 2.5 | 20.4 |
| COc1ccc(NC(=O)Nc2nc3c(s2)CC(N2C(=O)c4ccccc4C2=O)CC3)cc1 (stereo not drawn) | < 30 | < 30 |  |  |
| CCCN(C(=O)Nc1ccc(F)cc1)C1CCc2nc(NCc3ccc(C(=O)O)cc3)sc2C1 (stereo not drawn) | < 30 | < 30 |  |  |
| CCCN(C(=O)Nc1ccc(C(=O)O)cc1)C1CCc2nc(NC(=O)Nc3ccc(C(=O)O)cc3)sc2C1 (stereo not drawn) | < 30 | < 30 |  |  |
| CCCN(C(=O)Nc1cccc(F)c1)C1CCc2nc(NCc3ccc(C(=O)OC)cc3)sc2C1 (stereo not drawn) | < 30 | < 30 |  |  |
| CCCN(C(=O)Nc1cccc(C(=O)O)c1)C1CCc2nc(NCc3ccc(C(=O)O)cc3)sc2C1 (stereo not drawn) | > 30 | > 30 | 11.4 | 4 |
| O=C(Nc1cccc(F)c1)Nc1nc2c(s1)CC(N1C(=O)c3ccccc3C1=O)CC2 (stereo not drawn) | < 30 | < 30 |  |  |
| CCCN(C(=O)Nc1ccc(OC)cc1)C1CCc2nc(NCc3ccc(C(=O)O)cc3)sc2C1 (stereo not drawn) | < 30 | < 30 |  |  |
| CCCN(C(=O)Nc1ccc(OC)cc1)C1CCc2nc(NC(=O)Nc3ccc(OC)cc3)sc2C1 (stereo not drawn) | < 30 | < 30 |  |  |
| O=C(Nc1ccc(C(=O)O)cc1)Nc1nc2c(s1)CC(NC(=O)Nc1ccc(C(=O)O)cc1)CC2 (stereo not drawn) | < 30 | < 30 |  |  |
| O=C(Nc1ccc(C(=O)O)cc1)Nc1nc2c(s1)CC(N1C(=O)c3ccccc3C1=O)CC2 (stereo not drawn) | > 30 | > 30 | 4.6 | 4.9 |
| CCCN(C(=O)Nc1ccc(C(=O)OCC)cc1)C1CCc2nc(NC(=O)Nc3ccc(C(=O)OCC)cc3)sc2C1 (stereo not drawn) | < 30 | < 30 |  |  |
| CCCN(C(=O)Nc1ccc(F)cc1)C1CCc2nc(NCc3ccc(C(=O)OC)cc3)sc2C1 (stereo not drawn) | < 30 | < 30 |  |  |
| O=C(Nc1nc2c(s1)CC(NC(=O)Nc1ccccc1F)CC2)Nc1ccccc1F (stereo not drawn) | < 30 | < 30 |  |  |
| CCCN(C(=O)Nc1ccc(C(=O)O)cc1)C1CCc2nc(NCc3ccc(C(=O)O)cc3)sc2C1 (stereo not drawn) | < 30 | < 30 |  |  |
